Measurements reported in ChEMBL document CHEMBL1142171, “Identification and structural characterization of I84C and I84A mutations that are associated with high-level resistance to human immunodeficiency virus protease inhibitors and impair viral replication” (2007).

Key:
Format in all cases: functional, HEK293
[1] = tested on: Human immunodeficiency virus 1; assay: Antiviral activity against HIV1 A1 isolate with protease I84A mutation in HEK 293 cells relative to wild type
[2] = tested on: Human immunodeficiency virus 1; assay: Antiviral activity against HIV1 A9 isolate with protease I84A mutation in HEK 293 cells relative to wild type
[3] = tested on: Human immunodeficiency virus 1; assay: Antiviral activity against HIV1 A10 isolate with protease I84A mutation in HEK 293 cells relative to wild type
[4] = tested on: Human immunodeficiency virus 1; assay: Antiviral activity against HIV1 A11 isolate with protease I84A mutation in HEK 293 cells relative to wild type
[5] = tested on: Human immunodeficiency virus 1; assay: Antiviral activity against HIV1 A12 isolate with protease I84A mutation in HEK 293 cells relative to wild type
[6] = tested on: Human immunodeficiency virus 1; assay: Antiviral activity against HIV1 A13 isolate with protease I84A mutation in HEK 293 cells relative to wild type
[7] = tested on: Human immunodeficiency virus 1; assay: Antiviral activity against HIV1 A14 isolate with protease I84A mutation in HEK 293 cells relative to wild type
[8] = tested on: Human immunodeficiency virus 1; assay: Antiviral activity against HIV1 A15 isolate with protease I84A mutation in HEK 293 cells relative to wild type
[9] = tested on: Human immunodeficiency virus 1; assay: Antiviral activity against HIV1 C9 isolate with protease I84C mutation in HEK 293 cells relative to wild type
[10] = tested on: Human immunodeficiency virus 1; assay: Antiviral activity against HIV1 C10 isolate with protease I84C mutation in HEK 293 cells relative to wild type
[11] = tested on: Human immunodeficiency virus 1; assay: Antiviral activity against HIV1 C11 isolate with protease I84C mutation in HEK 293 cells relative to wild type
[12] = tested on: Human immunodeficiency virus 1; assay: Antiviral activity against HIV1 A8 isolate with protease I84A mutation in HEK 293 cells relative to wild type
[13] = tested on: Human immunodeficiency virus 1; assay: Antiviral activity against HIV1 A2 isolate with protease I84A mutation in HEK 293 cells relative to wild type
[14] = tested on: Human immunodeficiency virus 1; assay: Antiviral activity against HIV1 A3 isolate with protease I84A mutation in HEK 293 cells relative to wild type
[15] = tested on: Human immunodeficiency virus 1; assay: Antiviral activity against HIV1 A4 isolate with protease I84A mutation in HEK 293 cells relative to wild type
[16] = tested on: Human immunodeficiency virus 1; assay: Antiviral activity against HIV1 A5 isolate with protease I84A mutation in HEK 293 cells relative to wild type
[17] = tested on: Human immunodeficiency virus 1; assay: Antiviral activity against HIV1 A6 isolate with protease I84A mutation in HEK 293 cells relative to wild type
[18] = tested on: Human immunodeficiency virus 1; assay: Antiviral activity against HIV1 A7 isolate with protease I84A mutation in HEK 293 cells relative to wild type
[19] = tested on: Human immunodeficiency virus 1; assay: Antiviral activity against HIV1 C1 isolate with protease I84C mutation in HEK 293 cells relative to wild type
[20] = tested on: Human immunodeficiency virus 1; assay: Antiviral activity against HIV1 C2 isolate with protease I84C mutation in HEK 293 cells relative to wild type
[21] = tested on: Human immunodeficiency virus 1; assay: Antiviral activity against HIV1 C3 isolate with protease I84C mutation in HEK 293 cells relative to wild type
[22] = tested on: Human immunodeficiency virus 1; assay: Antiviral activity against HIV1 C4 isolate with protease I84C mutation in HEK 293 cells relative to wild type
[23] = tested on: Human immunodeficiency virus 1; assay: Antiviral activity against HIV1 C5 isolate with protease I84C mutation in HEK 293 cells relative to wild type
[24] = tested on: Human immunodeficiency virus 1; assay: Antiviral activity against HIV1 C6 isolate with protease I84C mutation in HEK 293 cells relative to wild type
[25] = tested on: Human immunodeficiency virus 1; assay: Antiviral activity against HIV1 C7 isolate with protease I84C mutation in HEK 293 cells relative to wild type
[26] = tested on: Human immunodeficiency virus 1; assay: Antiviral activity against HIV1 C8 isolate with protease I84C mutation in HEK 293 cells relative to wild type
[27] = tested on: Human immunodeficiency virus 1; assay: Resistance to HIV1 with protease 46I, 54V and I84V mutation in HEK 293 cells relative to similar background
[28] = tested on: Human immunodeficiency virus 1; assay: Resistance to HIV1 with protease 46M, 54I and I84V mutation in HEK 293 cells relative to similar background
[29] = tested on: Human immunodeficiency virus 1; assay: Resistance to HIV1 with protease 46M, 54I and I84C mutation in HEK 293 cells relative to similar background
[30] = tested on: Human immunodeficiency virus 1; assay: Resistance to HIV1 with protease 46I, 54I and I84V mutation in HEK 293 cells relative to similar background
[31] = tested on: Human immunodeficiency virus 1; assay: Resistance to HIV1 with protease 46I, 54I and I84A mutation in HEK 293 cells relative to similar background
[32] = tested on: Human immunodeficiency virus 1; assay: Resistance to HIV1 with protease 46I/L, 54I and I84C mutation in HEK 293 cells relative to similar background
[33] = tested on: Human immunodeficiency virus 1; assay: Resistance to HIV1 with protease 46I, 54M/V and I84A mutation in HEK 293 relative to similar background

| Compound | Fold change [1] | Fold change [2] | Fold change [3] | Fold change [4] | Fold change [5] | Fold change [6] | Fold change [7] | Fold change [8] | Fold change [9] | Fold change [10] | Fold change [11] | Fold change [12] | Fold change [14] | Fold change [15] | Fold change [16] | Fold change [17] | Fold change [18] | Fold change [19] | Fold change [21] | Fold change [22] | also measured |
| --- | --- | --- | --- | --- | --- | --- | --- | --- | --- | --- | --- | --- | --- | --- | --- | --- | --- | --- | --- | --- | --- |
| COC(=O)N[C@H](C(=O)N[C@@H](Cc1ccccc1)[C@@H](O)CN(Cc1ccc(-c2ccccn2)cc1)NC(=O)[C@@H](NC(=O)OC)C(C)(C)C)C(C)(C)C [ATAZANAVIR] | 38 | 52 | 700 | 63 | 25 | 700 | 21 | 253 | 9.1 | 19 | 5 | – | – | – | – | – | – | – | – | – | – |
| Cc1c(O)cccc1C(=O)N[C@@H](CSc1ccccc1)[C@H](O)CN1C[C@H]2CCCC[C@H]2C[C@H]1C(=O)NC(C)(C)C | 600 | 600 | 600 | 600 | 600 | 196 | 210 | 600 | 70 | 286 | 91 | 600 | 600 | 600 | 600 | 64 | 600 | 15 | 74 | 395 | Fold change [13]: 600; Fold change [20]: 59; Fold change [23]: 51; Fold change [24]: 144; Fold change [25]: 600; Fold change [26]: 86; Fold change [27]: 16; Fold change [28]: 4; Fold change [29]: 74; Fold change [30]: 9; Fold change [31]: >600; Fold change [32]: 115; Fold change [33]: >600 |
| CC(C)(C)NC(=O)[C@@H]1C[C@@H]2CCCC[C@@H]2CN1C[C@@H](O)[C@H](Cc1ccccc1)NC(=O)[C@H](CC(N)=O)NC(=O)c1ccc2ccccc2n1 | 1000 | 1000 | 1000 | 1000 | 1000 | 1000 | 69 | 1000 | – | 242 | – | 265.5 | 365 | 241 | 256 | 24 | 1000 | 6.1 | 56 | 92 | Fold change [13]: 141; Fold change [20]: 14; Fold change [23]: 41; Fold change [24]: 24; Fold change [25]: 1000; Fold change [26]: 68; Fold change [27]: 20; Fold change [28]: 4.3; Fold change [29]: 56; Fold change [30]: 4.3; Fold change [31]: 261; Fold change [32]: 80; Fold change [33]: >1000 |
| CC(C)(C)NC(=O)[C@@H]1CN(Cc2cccnc2)CCN1C[C@@H](O)C[C@@H](Cc1ccccc1)C(=O)N[C@H]1c2ccccc2C[C@H]1O.O | 73 | 138 | 400 | 73 | 400 | 178 | 152 | 118 | 5.5 | 5.5 | 5.7 | 400 | 78 | 58 | 53 | 38 | 92 | 1.2 | 4.1 | 11 | Fold change [13]: 27; Fold change [20]: 1.3; Fold change [23]: 3.8; Fold change [24]: 63; Fold change [25]: 42; Fold change [26]: 6.4; Fold change [27]: 19; Fold change [28]: 2.4; Fold change [29]: 4.1; Fold change [30]: 9.1; Fold change [31]: 73; Fold change [32]: 8.6; Fold change [33]: 178 |
| Cc1cccc(C)c1OCC(=O)N[C@@H](Cc1ccccc1)[C@@H](O)C[C@H](Cc1ccccc1)NC(=O)[C@H](C(C)C)N1CCCNC1=O [LOPINAVIR] | 10 | 16 | 59 | 14 | 210 | 50 | 104 | 75 | 2.3 | 5.1 | 2.8 | 94 | 11 | 14 | 9 | 14 | 124 | 0.4 | 1.6 | 3.1 | Fold change [23]: 3.1; Fold change [24]: 47; Fold change [25]: 7.2; Fold change [26]: 2.9; Fold change [27]: 80; Fold change [28]: 2.8; Fold change [29]: 2.2; Fold change [30]: 8.9; Fold change [31]: 14; Fold change [32]: 3.1; Fold change [33]: 75 |
| CC(C)c1nc(CN(C)C(=O)N[C@H](C(=O)N[C@@H](Cc2ccccc2)C[C@H](O)[C@H](Cc2ccccc2)NC(=O)OCc2cncs2)C(C)C)cs1 [RITONAVIR] | 60 | 167 | 400 | 73 | 400 | 400 | 105 | 400 | 20 | 29 | 15 | 86 | 76 | 42 | 54 | 34 | 141 | 1.6 | 10 | 9.1 | Fold change [13]: 85; Fold change [20]: 8.6; Fold change [23]: 15; Fold change [24]: 22; Fold change [25]: 60; Fold change [26]: 14; Fold change [27]: 49; Fold change [28]: 6.7; Fold change [29]: 10; Fold change [30]: 11; Fold change [31]: 74; Fold change [32]: 18; Fold change [33]: >400 |
| CC(C)CN(C[C@@H](O)[C@H](Cc1ccccc1)NC(=O)O[C@H]1CCOC1)S(=O)(=O)c1ccc(N)cc1 | 32 | 33 | 400 | 47 | 400 | 43 | 141 | 30 | 30 | 53 | 18 | 252 | 43 | 32 | 28 | 21 | 74 | 1.7 | 8.6 | 10 | Fold change [13]: 31; Fold change [20]: 5.4; Fold change [23]: 20; Fold change [24]: 64; Fold change [25]: 23; Fold change [26]: 12; Fold change [27]: 36; Fold change [28]: 4; Fold change [29]: 8.6; Fold change [30]: 9; Fold change [31]: 33; Fold change [32]: 21; Fold change [33]: 74 |
